Entries after “also recorded” stand apart in the source; their conditions may differ. Ends that are not written are not given here.
How the values were obtained:
GIP [1] = assay: Blood total GIP concentration 30 minutes after intragastric administration (Example 5, FIG. 6); type: in vivo, mice
Experimental: (§1) Healthy C57BL/6J male mice were fasted for 16 hours from 18:00 the day before the experiment. At 10:00, various solutions shown in the figure were intragastrically administered (40 ml/kg). Thirty minutes after administration, blood was collected from the portal vein under isoflurane anesthesia. An anticoagulant (heparin (final concentration 50 IU/ml)) and a peptide degradation inhibitor (aprotinin (final concentration 500 KIU/ml) and vildagliptin (final concentration 10 μM)) were added in advance to the sampling syringe. The collected blood was cooled and centrifuged and stored at −80° C. until the obtained plasma was analyzed. The total GIP concentration (A) and the total GLP-1 concentration (B) in the blood were analyzed using ELISA kits (EZGLP1T-36K and EZRMGIP-55K) manufactured by Millipore Corporation.

GIP [2] = assay: Isomerized sugar-induced GIP secretion, portal plasma ELISA (Example 9, FIG. 13); conditions: GABA 60 mg/kg po with glucose+fructose 1 g/kg each
[3] = test system: sensory nerve disorder model mice by subcutaneous administration of capsaicin; assay: Food intake after intragastric GABA in capsaicin sensory nerve disorder model mice (FIG. 1B); type: in vivo; conditions: GABA 200 mg/kg intragastric, capsaicin treatment
Experimental: (§2) In order to examine the involvement of the vagus nerve which is a visceral sensory nerve, the food intake reducing effect by intragastric administration of GABA was examined using sensory nerve disorder model mice by subcutaneous administration of capsaicin or subdiaphragmatic vagotomized mice. The sensory nerve disorder model mice by subcutaneous administration of capsaicin were prepared as follows. 50 mg/kg of capsaicin (5 ml/kg, solution composition: 10% ethanol, 10% Tween 80, 80% physiological saline) was subcutaneously administered to C57BL/6J male mice under tribromoethanol (200 mg/kg, intraperitoneal administration (ip)) anesthesia, and after 2 days, 50 mg/kg of capsaicin was subcutaneously administered under similar anesthesia. Further, after 2 days, 10 mg/kg of capsaicin was intraperitoneally administered under no anesthesia. After a recovery period of 5 to 7 days, an experiment of food intake was performed. In sham operation and subdiaphragmatic vagotomy, surgery was performed on C57BL/6J male mice under tribromoethanol (200 mg/kg, ip) anesthesia. […] All the mice were fasted overnight (16 hours) on the day before the experiment of food intake, then intragastrically administered a single dose of physiological saline or GABA (200 mg/kg) from 9:45, and fed at 10:00, and the food intake by free-feeding was measured over time. […]

sham-operated mice = assay: Food intake after intragastric GABA in sham-operated mice (FIG. 1B); type: in vivo; conditions: GABA 200 mg/kg intragastric
Experimental: as §2

GLP-1 [4] = assay: Fructose-induced GLP-1 secretion, portal plasma ELISA (Example 9, FIG. 13); type: in vivo, mice
[5] = test system: Healthy C57BL/6J male mice; assay: Food intake after sucrose with or without GABA (Example 10, FIG. 14); type: in vivo
Experimental: Thereafter, the mice were fed at 10:00 on the test day, and the food intake by free-feeding was measured over time.

GIP [6] = assay: Glucose-induced GIP secretion, portal plasma ELISA (Example 7, FIG. 10); type: in vivo, mice; conditions: GABA (2, 20, 200 mg/kg) with glucose 1 g/kg oral, 15 minutes
[7] = test system: subdiaphragmatic vagotomized mice; assay: Food intake after intragastric GABA in subdiaphragmatic vagotomized mice (FIG. 1B); type: in vivo; conditions: GABA 200 mg/kg intragastric, afferent vagotomy
Experimental: as §2

GLP-1 [8] = assay: Blood total GLP-1 concentration 30 minutes after intragastric administration (Example 5, FIG. 6); type: in vivo, mice
Experimental: as §1

[9] = test system: Healthy C57BL/6J male mice; assay: Food intake after GABA, enteral nutrient or both 30 minutes before feeding, healthy mice (Example 2, FIG. 2); type: in vivo
Experimental: Saline (40 ml/kg, po), GABA (200 mg/kg, po), EnsureH (40 ml/kg, po, 1.5 kcal/g) which is an enteral nutrient manufactured by Abbott Japan LLC, or EnsureH+GABA (GABA 200 mg/kg in Ensure, 40 ml/kg, po) were administered from 9:15. The mice were fed 30 minutes after administration, and freely fed. […] At 0.5 h or after, the cumulative food intake (kcal) of the forcibly administered solution and the feed taken was shown (FIG. 2).

human subjects = assay: Human test: VAS satiety and appetite, and calorie intake of a lunch box after GABA intake (Example 6); type: in vivo; conditions: GABA 100 mg before lunch box, versus placebo
Experimental: It was examined whether GABA administration also affects the food intake in humans. In 13 human subjects (25 to 43 years old, 5 males and 8 females), changes in the food intake in the presence or absence of GABA administration were confirmed in the following test outline. Specifically, each subject was fasted from 21:00 on the day before the test, and subjective evaluation (satiety, hunger, appetite) was performed by the VAS questionnaire at 12:00 on the test day. Thereafter, a sample (placebo group: dextrin, GABA group: GABA 100 mg) was taken in together with 50 mL of water, and immediately after that, diet (lunch box) was taken. Immediately after diet, at 30 minutes, 60 minutes, and 120 minutes after diet, subjective evaluation (satiety, hunger, appetite) was performed again by the VAS questionnaire, and the remaining amount of a lunch box was photographed to calculate intake kcal.

[10] = test system: Healthy C57BL/6J male mice; assay: Food intake after intragastric GABA just before feeding in fasted healthy mice (Example 1, FIG. 1A); type: in vivo; conditions: GABA solution 20 mg/kg or 200 mg/kg po just before feeding, compared with physiological saline
Experimental: As experimental animals, C57BL/6J male mice were used. The mice were acclimated to the environment by preliminary rearing for 1 week or more in individual cages in the free-eating and drinking environment at a temperature of 23±2° C., a humidity of 55±10%, a 12 hour light-dark cycle (light period: 7:30 to 19:30). The animal experiment was conducted with approval in accordance with the guidelines of the Committee for Animal Research of Kyoto Prefectural University. […] In each administration, the mice were intragastrically administered (po) a single dose of physiological saline as a control group and GABA (2 mg/kg, 20 mg/kg, 200 mg/kg) as a test group at a dose of 10 ml/kg using a sonde (stainless steel feeding needle). […] The amount of the feed taken is expressed as the cumulative food intake (kcal) or the food intake at each time (kcal) (FIG. 1A). The cumulative food intake (kcal) also includes energy of administered GABA (3.95 kcal/g).

vagal afferent nerves = assay: pERK1/2 immunostaining of nodose ganglion, nucleus tractus solitarius and area postrema (Example 4, FIG. 4, 5); type: in vivo, mice; conditions: 30 minutes
Experimental: C57BL/6J male mice were acclimated to the environment and experimental work by preliminary rearing and handling for 1 week or more in individual cages. […] They were post-fixed, and a frozen section specimen was prepared. Using this frozen section specimen, immunostaining of phosphorylated ERK1/2 (pERK1/2), which is a neural activation marker, was performed, and each organ section was photographed with a fluorescence microscope and analyzed.

GLP-1 [11] = assay: GLP-1 secretion after glucose with or without GABA, portal plasma ELISA (Example 7, FIG. 10); type: in vivo, mice; conditions: addition of GABA (2, 20, 200 mg/kg) to glucose 1 g/kg oral, 15 minutes
[12] = test system: Healthy C57BL/6J male mice; assay: Food intake after glucose, fructose, isomerized sugar with or without GABA (Example 8, FIG. 11, 12); type: in vivo; conditions: fructose 1 g/kg po alone, compared with control group (saline)
Experimental: Thereafter, the mice were fed at 10:00 on the test day, and the food intake by free-feeding was measured over time. […] The effect of GABA on the inhibitory action on fructose-induced satiety by glucose was examined. […] Thereafter, the mice were fed at 10:00 on the test day, and the food intake by free-feeding was measured over time.

C57BL/6J male mice = assay: Conditioned taste aversion test (saccharin preference, Example 3, FIG. 3); type: in vivo; conditions: lithium chloride 3 mmol/kg intraperitoneal
Experimental: C57BL/6J male mice reared in individual cages were given two bottles of water only for 2 hours from 10:00 to 12:00 for 5 days, whereby the mice were acclimated to the water restriction schedule. On day 6, a 0.15% saccharin solution was presented for 30 minutes, and thereafter, lithium chloride (3 mmol/kg) was intraperitoneally administered, whereby the mice were made to acquire an aversion to the taste of the saccharin solution (conditioning). In the same manner, a control group to which physiological saline (10 mL/kg) was intragastrically administered and a test group to which GABA (200 mg/kg) was intragastrically administered were prepared. On day 7 serving as a rest day, the above-described water restriction schedule was performed. On day 8 serving as a test day, two bottles of a 0.15% saccharin solution and water were simultaneously presented for 30 minutes, and the preference of the saccharin solution (saccharin intake/total intake of two bottles×100, %) was determined.

[13] = test system: afferent nerves in the hepatic branch of the vagus nerve; conditions: administration into the hepatic portal vein; J Auton Nerv Syst. 1996; cited from earlier work
obese patients = conditions: Bergmann et al. 2019, cited from earlier work
[14] = GABA addition to enteral nutrients, 30 minutes after administration
[15] = GABA alone, intragastric 40 ml/kg, 30 minutes after administration
[16] = addition of GABA to the liquid food (EnsureH), 30 minutes

Question: Which results are given for NCCCC(=O)O [GABA, γ-Aminobutyric acid]?
Answer: GIP secretion (blood GIP increase by nutrient) (GIP [1]; [14]): suppress; also recorded: suppresses; blood GIP concentration (GIP [1]; [15]): no change; GIP concentration relative to liquid food alone (GIP [1]; [16]): about ⅓; isomerized sugar-induced GIP secretion (GIP [2]): suppresses; ability to induce the transient satiety or to suppress binge eating on a fasting condition (food intake) [3]: impaired; ability to induce the transient satiety or to suppress binge eating on a fasting condition (food intake) (sham-operated mice): similarly observed; fructose-induced GLP-1 secretion (GLP-1 [4]; GABA 60 mg/kg po): further enhances; GLP-1 secretion (GLP-1 [4]; further addition of GABA 60 mg/kg po to glucose+fructose 1 g/kg each): enhanced; feeling of satiety ([5]; GABA 200 mg/kg po taken together with sucrose 2 g/kg po): significantly induces; glucose-induced GIP secretion (GIP [6]): suppresses; ability to induce the transient satiety or to suppress binge eating on a fasting condition (food intake) [7]: impaired; GLP-1 secretion (blood GLP-1 increase by nutrient) (GLP-1 [8]; [14]): increase; also recorded: promotes; blood GLP-1 concentration (GLP-1 [8]; [15]): no change; GLP-1 concentration relative to liquid food alone (GLP-1 [8]; [16]): approximately double; eating behavior after the start of eating ([9]; GABA 200 mg/kg po alone 30 minutes before eating, compared with physiological saline): not different; satiety via vagal afferent nerves ([9]; GABA addition to enteral nutrients, 30 minutes before feeding): enhances; food intake reducing effect ([9]; administration of GABA 30 minutes before diet): greatly reduced; feeling of satiety (VAS) (human subjects; immediately after diet, 30 minutes and 60 minutes after diet): significantly increased; appetite after diet (VAS) (human subjects): significantly reduced; also recorded: suppressed; calorie intake (human subjects): significantly low value; feeling of satiety, area under the curve (AUC) (human subjects): significant increase; also recorded: significantly increased; fasting food intake within 1 hour from the start of diet after fasting ([10]; 16 h fasted): significantly reduced; food intake within 2 hours from the start of diet after fasting ([10]; 16 h fasted): reduces; food intake after 2 hours from the start of eating [10]: not always changed; afferent vagal activation by nutrient (pERK1/2) (vagal afferent nerves; GABA 200 mg/kg in EnsureH 40 ml/kg po, compared with EnsureH alone): significantly enhances; afferent vagal activity (neuron activities of vagal afferent nerves, nucleus tractus solitarius, area postrema; pERK1/2) (vagal afferent nerves; GABA alone 200 mg/kg po, compared with physiological saline): does not affect; GLP-1 secretion (GLP-1 [11]): does not significantly enhance

Question: What does the source list for O=C(CO)[C@@H](O)[C@H](O)[C@H](O)CO [fructose, reference compound]?
Answer: GLP-1 secretion (GLP-1 [4]; fructose 1 g/kg po): enhances; food intake [12]: suppressed

Question: What does the source list for [Cl-].[Li+] [lithium chloride]?
Answer: aversion (C57BL/6J male mice): induces aversion; preference of saccharin (C57BL/6J male mice; conditioning day 6, test day 8): reduced

Question: With OC[C@H]1O[C@@](CO)(O[C@H]2O[C@H](CO)[C@@H](O)[C@H](O)[C@H]2O)[C@@H](O)[C@@H]1O [sucrose, reference compound] as the molecule, how does the “satiety inducing action (intake inhibitory action)” value ([5]; sucrose 2 g/kg po alone) read?
Answer: not observed

Question: Which “neural activity of afferent nerves in the hepatic branch of the vagus nerve” value [13] does the source give for “Glucose-dependent insulinotropic polypeptide [GIP]” here?
Answer: does not result in any change

Question: And the “effect of GLP-1 on energy intake” value (obese patients; GIP administered simultaneously with GLP-1)?
Answer: attenuated

Question: Which “neural activity of afferent nerves in the hepatic branch of the vagus nerve” value [13] does the source give for “glucagon-like peptide-1 (HAEGTFTSDVSSYLEGQAAKEFIAWLVKGR; ends and bridges not checked; UniProt P01275 98-127, looked up) [GLP-1, incretin hormone produced in endocrine L cells]” here?
Answer: significant increase

Question: What about the energy intake (obese patients; GLP-1 intravenously to obese patients) of the same molecule?
Answer: reduced
